Consider 22 compounds from US20260055083A1, “APOL1 INHIBITORS AND METHODS OF USE” (Maze Therapeutics, Inc., priority 2022, published 2026).

Assay [1] deals with T1, APOL1 G2 (Homo sapiens, UniProt O14791, DEL388-389).
T1 construct: expressed in transfected cells; host or cells: HEK293/T-REx APOL1 G2 clone #2, doxycycline-inducible
T1 sequence (O14791 with tags, fused parts or gaps DEL388-389): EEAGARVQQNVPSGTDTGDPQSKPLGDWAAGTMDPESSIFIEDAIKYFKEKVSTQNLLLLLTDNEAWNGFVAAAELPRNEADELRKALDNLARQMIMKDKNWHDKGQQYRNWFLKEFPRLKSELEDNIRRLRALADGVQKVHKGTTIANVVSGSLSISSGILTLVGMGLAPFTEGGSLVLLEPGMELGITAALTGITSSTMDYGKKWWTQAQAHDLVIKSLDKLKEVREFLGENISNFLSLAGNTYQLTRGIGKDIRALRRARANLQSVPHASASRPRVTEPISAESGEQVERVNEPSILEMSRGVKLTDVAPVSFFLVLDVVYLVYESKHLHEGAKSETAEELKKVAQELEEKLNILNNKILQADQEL
The experiment in a line: APOL1 G2 FLIPR calcium influx assay (HEK T-REx/GCaMP6f/APOL1 G2 K6.3 cells). Type of assay: cell-based. The following applies: HEK293 clone expressing GCaMP6f, doxycycline-induced APOL1 G2; prevention of calcium influx; geometric mean of at least 2 assay runs. The method, boiled down:
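Cells express GCaMP6f stably and APOL1 G2 after a 6 h doxycycline induction. Duplicate 8-point dilutions sit 10 min at room temperature in Ca2+-free Tyrode's (pH 7.4), then Ca2+ is injected to 5 mM final and the FLIPR signal recorded. AC50s are geometric means across ≥2 days.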

Assay [2] has as its target T1, APOL1 G2. The experiment in a line: APOL1 G2 HEK293 rescue of cell death caused by overexpression of APOL1 (CellTiter-Glo). Type of assay: cell-based. The settings on record: HEK293/T-REx APOL1 G2 clone #2, doxycycline induction, 17 hours, CellTiter-Glo luminescence; reversal of cell death; geometric mean of at least 2 assay runs. In outline:
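Viability read by CellTiter-Glo luminescence after 17 h, 37 °C, in HEK293/T-REx cells expressing APOL1 G2 on 6 ng/mL doxycycline, 5,000 cells/well. Compounds tested as duplicate 8-point, 3-fold dilutions, 0.5% DMSO final; four-parameter logistic EC50, usually geometric mean of ≥2 days.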

Regarding `CN=S(C)(=O)c1ccc(OC[C@@H]2CN(CCc3cccc(C#N)c3)C[C@H]2C)cn1` (single isomer, unassigned) [Compound 72], the AC50 on APOL1 G2 [1] was determined as 183 nM. The EC50 at APOL1 G2 [2] came to 217 nM.
For `CS(=O)(=O)c1ccc(OC[C@@H]2CCCN(C3CCc4ccc(Cl)cc4C3)C2)cc1` (single isomer, unassigned) [Compound 132, (3R)-1-[(2S or 2R)-7-chloro-1,2,3,4-tetrahydronaphthalen-2-yl]-3-[(4-methanesulfonylphenoxy)methyl]piperidine] the same measures were 446 nM and 924 nM.
For `C[C@@H]1C[C@H](COc2ccc(S(=O)(=O)CCS(C)(=O)=O)cc2)CN1C1CCc2c(C#N)cc(Cl)cc2C1` (single isomer, unassigned) [Compound 48, (6R or 6S)-3-chloro-6-[(2R,4S)-4-{[4-(2-methanesulfonylethanesulfonyl)phenoxy]methyl}-2-methylpyrrolidin-1-yl]-5,6,7,8-tetrahydronaphthalene-1-carbonitrile] the same measures were 1130 nM and 398 nM.
On to `Cc1cc(OC[C@H]2C[C@@H](C)N(CCc3cccc(C#N)c3)C2)cnc1S(C)(=O)=O` (single isomer, unassigned) [Compound 30], for which the concentration at half-maximal activity (AC50) on APOL1 G2 [1] stood at 185 nM. In addition, the EC50 at APOL1 G2 [2] amounted to 38.4 nM.
`C[C@@H]1C[C@H](COc2ccc(S(=O)(=O)CCO)cc2)CN1C1CCc2c(C#N)cc(Cl)cc2C1` (single isomer, unassigned) [Compound 57, (6S or 6R)-3-chloro-6-[(2R,4S)-4-{[4-(2-hydroxyethanesulfonyl)phenoxy]methyl}-2-methylpyrrolidin-1-yl]-5,6,7,8-tetrahydronaphthalene-1-carbonitrile]: at APOL1 G2 [1], the half-maximal activity concentration (AC50) turned out to be 802 nM. Also, the concentration giving a half-maximal response (EC50) on APOL1 G2 [2] stood at 266 nM.
For `C[C@@H]1CN(CCc2cccc(C#N)c2)C[C@H]1COc1cnc(S(C)(=O)=O)cn1` [Compound 20, 3-{2-[(3S,4S)-3-{[(5-methanesulfonylpyrazin-2-yl)oxy]methyl}-4-methylpyrrolidin-1-yl]ethyl}benzonitrile] the same measures were 776 nM and 1120 nM.
For `C[C@@H]1CN(CCc2cccc(C#N)c2)C[C@H]1COc1ccc(S(C)(=O)=NCCS(C)(=O)=O)cc1` (single isomer, unassigned) [Compound 69] the same measures were 346 nM and 377 nM.
For `C[C@@H]1C[C@H](COc2ccc(S(=O)(=O)CCCS(C)(=O)=O)cc2)CN1C1CCc2ccc(C#N)cc2C1` (single isomer, unassigned) [Compound 34, (7R or 7S)-7-[(2R,4S)-4-{[4-(3-methanesulfonylpropanesulfonyl)phenoxy]methyl}-2-methylpyrrolidin-1-yl]-5,6,7,8-tetrahydronaphthalene-2-carbonitrile] the same measures were 951 nM and 86.9 nM.
Take `C[C@@H]1CN(CC(O)c2cccc(C#N)c2)C[C@H]1COc1ccc(S(C)(=O)=O)nc1` (single isomer, unassigned) [Compound 105, 3-[(1S or 1R)-1-hydroxy-2-[(3S,4S)-3-{[(6-methanesulfonylpyridin-3-yl)oxy]methyl}-4-methylpyrrolidin-1-yl]ethyl]benzonitrile]: the AC50 on APOL1 G2 [1] is greater than 10000 nM. For the same compound, the EC50 on APOL1 G2 [2] is greater than 10000 nM.
As to `CN=S(C)(=O)c1ccc(OC[C@H]2C[C@@H](C)N(C3CCc4ccc(C#N)cc4C3)C2)cc1` (single isomer, unassigned) [Compound 38, (7S or 7R)-7-[(2R,4S)-2-methyl-4-({4-[methyl(methylimino)oxo-λ^6-sulfanyl]phenoxy}methyl)pyrrolidin-1-yl]-5,6,7,8-tetrahydronaphthalene-2-carbonitrile], the AC50 on APOL1 G2 [1] is 590 nM. Besides, the half-maximal effective concentration (EC50) on APOL1 G2 [2] amounted to 65 nM.
For `C[C@@H]1C[C@H](COc2ccc(S(=O)(=O)CCO)cc2)CN1C1CCc2c(C#N)cc(Cl)cc2C1` (single isomer, unassigned) [Compound 56, (6R or 6S)-3-chloro-6-[(2R,4S)-4-{[4-(2-hydroxyethanesulfonyl)phenoxy]methyl}-2-methylpyrrolidin-1-yl]-5,6,7,8-tetrahydronaphthalene-1-carbonitrile] the same measures were 714 nM and 185 nM.
In the case of `COC(=O)CCCS(=O)(=O)c1ccc(OC[C@@H]2CN(CCc3cc(Cl)cc(C#N)c3)C[C@H]2C)cc1` [Compound 80, methyl 4-(4-{[(3S,4S)-1-[2-(3-chloro-5-cyanophenyl)ethyl]-4-methylpyrrolidin-3-yl]methoxy}benzenesulfonyl)butanoate], on APOL1 G2 [1], the half-maximal activity concentration (AC50) is 404 nM. Also, the EC50 at APOL1 G2 [2] came to 202 nM.
For `CS(=O)(=O)c1ccc(OCC2C[C@@H](CO)N(CCc3cccc(Cl)c3)C2)cc1` (single isomer, unassigned) [Compound 123, [(2S,4S or 4R)-1-[2-(3-chlorophenyl)ethyl]-4-[(4-methanesulfonylphenoxy)methyl]pyrrolidin-2-yl]methanol] the same measures were 201 nM and 393 nM.
For `Cc1cc(OC[C@H]2C[C@@H](C)N(CC(O)c3cccc(C#N)c3)C2)cnc1S(C)(=O)=O` (single isomer, unassigned) [Compound 96, 3-[(1S or 1R)-1-hydroxy-2-[(2R,4S)-4-{[(6-methanesulfonyl-5-methylpyridin-3-yl)oxy]methyl}-2-methylpyrrolidin-1-yl]ethyl]benzonitrile] the same measures were 188 nM and 27.7 nM.
Regarding `CS(=O)(=O)C1(c2ccc(OC[C@@H]3CN(CCc4cc(Cl)cc(C#N)c4)CCN3)cc2)CC1` [Compound 110, 3-chloro-5-{2-[(3S)-3-{[4-(1-methanesulfonylcyclopropyl)phenoxy]methyl}piperazin-1-yl]ethyl}benzonitrile], the AC50 on APOL1 G2 [1] worked out at 140 nM. Moreover, the EC50 on APOL1 G2 [2] was found to be 93.2 nM.
For `CS(=O)(=O)c1ccc(OC[C@H]2CN(CCc3cccc(Cl)c3)C[C@@H]2CO)cc1` [Compound 22, [(3R,4R)-1-[2-(3-chlorophenyl)ethyl]-4-[(4-methanesulfonylphenoxy)methyl]pyrrolidin-3-yl]methanol] the same measures were 1560 nM and greater than 18800 nM.
For `C[C@@H]1C[C@H](COc2ccc(S(C)(=O)=O)cc2)CN1C1CCc2ccc(Cl)cc2C1` (single isomer, unassigned) [Compound 5, (2R,4S)-1-[(2S or 2R)-7-chloro-1,2,3,4-tetrahydronaphthalen-2-yl]-4-[(4-methanesulfonylphenoxy)methyl]-2-methylpyrrolidine] the same measures were 488 nM and 47.6 nM.
For `C[C@@H]1C[C@H](COc2ccc(S(C)(=O)=O)nc2)CN1CCc1cccc(C#N)c1` [Compound 64, 3-{2-[(2R,4S)-4-{[(6-methanesulfonylpyridin-3-yl)oxy]methyl}-2-methylpyrrolidin-1-yl]ethyl}benzonitrile] the same measures were 287 nM and 50.9 nM.
For the compound `CC(C(O)c1cc(Cl)cc(C#N)c1)N1C[C@@H](COc2ccc(S(C)(=O)=O)cc2)[C@H](C)C1` (single isomer, unassigned) [Compound 101, 3-chloro-5-((1S,2R or 1R,2S)-1-hydroxy-2-((3S,4S)-3-methyl-4-((4-(methylsulfonyl)phenoxy)methyl)pyrrolidin-1-yl)propyl)benzonitrile], the half-maximal activity concentration (AC50) at APOL1 G2 [1] worked out at 765 nM. Besides, the EC50 at APOL1 G2 [2] was greater than 10000 nM.
With `CC(C(O)c1cc(Cl)cc(C#N)c1)N1C[C@@H](COc2ccc(S(C)(=O)=O)cc2)C[C@H]1C` (single isomer, unassigned) [Compound 97, 3-chloro-5-[(1S,2S or 1R,2R or 1R,2S or 1S,2R)-1-hydroxy-2-[(2R,4S)-4-[(4-methanesulfonylphenoxy)methyl]-2-methylpyrrolidin-1-yl]propyl]benzonitrile], the AC50 at APOL1 G2 [1] turned out to be 813 nM. Moreover, on APOL1 G2 [2], the EC50 came to 2100 nM.
In the case of `C[C@@H]1C[C@H](COc2ccc(S(C)(=O)=O)cc2)CN1C1Cc2ccc(Cl)cc2C1` (single isomer, unassigned) [Compound 4, (2R,4S)-1-[(2S or 2R)-5-chloro-2,3-dihydro-1H-inden-2-yl]-4-[(4-methanesulfonylphenoxy)methyl]-2-methylpyrrolidine], the AC50 on APOL1 G2 [1] was determined as 1140 nM. The concentration for a half-maximal effect (EC50) on APOL1 G2 [2] turned out to be 2350 nM.
For `C[C@@H]1C[C@H](COc2ccc(S(=O)(=O)CCCS(C)(=O)=O)cc2)CN1C1CCc2c(C#N)cc(Cl)cc2C1` (stereo partly drawn) [Compound 43, 3-chloro-6-[(2R,4S)-4-{[4-(3-methanesulfonylpropanesulfonyl)phenoxy]methyl}-2-methylpyrrolidin-1-yl]-5,6,7,8-tetrahydronaphthalene-1-carbonitrile] the same measures were 1360 nM and 350 nM.
